Measurements: patent US7786176B2, “Vaginal treatment composition containing xylitol” (Kimberly-Clark Worldwide, Inc., priority 2005, dated 2010)
Entries after “also recorded” stand apart in the source; their conditions may differ.

Legend:
Format in all cases: cell-based
Gardnerella vaginalis [1] = assay: Gardnerella vaginalis optical density with sugars and sugar derivatives (Example 15); conditions: 24 hours; 1.0% (wt/vol), FIG. 12
Experimental: A growth medium for Gardnerella vaginalis was prepared according to the manufacturer's instructions, and the pH of this medium was adjusted to pH 6.0 using 1 N HCl. D-ribose (99%, Calbiochem), D-arabinose (98%, Alfa Aesar), D-xylose (Aldrich), D-lyxose (99%, Avovado), D-arabitol (97%, Alfa Aesar), adonitol (99%, Alfa Aesar), xylitol (99%, Alfa Aesar), xylitol (98%, Danisco), and xylitol (98%, Aldrich) were then dissolved into the growth medium at a concentration of 1.0% (wt/vol). 0.9 milliliters of the culture medium was also added into a different culture tube as a control. Thereafter, 0.1 milliliter of Gardnerella vaginalis culture suspension (concentration of 1×10^6/milliliter) was added to each of the culture tubes, and then incubated overnight at 37° C., and the optical density was then measured after 24 hours at a wavelength of 595 nanometers. This was accomplished by pipetting 100 microliters of the control or sample solutions into 96-well microplates, and then using a ThermoMax Microplate Reader from Molecular Devices of Sunnyvale, Calif. to obtain the optical density readings. The results are depicted in FIG. 12.

Gardnerella vaginalis [2] = assay: Gardnerella vaginalis plate count after treatment with gel compositions (Example 6)
Experimental: Gardnerella vaginalis was obtained from the American Type Culture Collection (ATCC #14018). The culture medium was Casman's medium base (BD 229010) with 5% rabbit blood (ATCC medium 70).
Initially, eight (8) solutions were formed as set forth below in Table 4.
Samples 1-2 were prepared by dissolving the KELCOGEL® (0.07 grams) and/or xylitol (0.44 grams) into 10 milliliters of water heated to between 70° C. to 80° C. Samples 3-4 and 6 were formed by first autoclaving a gallic acid stock solution (0.75 grams of gallic acid/20 mL water), autoclaving, and then adding 200 microliters of sterile gallic acid (0.0075 grams) to each sterile solution. Sample 5 was formed by dissolving 0.44 grams of xylitol in deionized water, followed by autoclaving. Sample 7 was formed by dissolving 0.44 grams of xylitol in sterilized growth medium for Gardnerella vaginalis and then filtering. The amount of xylitol was selected to yield isotonic solutions. […]
Upon formation, 1 milliliter of each control or sample solution was then added into a culture tube, followed by the addition of 0.8 milliliters of growth medium for Gardnerella vaginalis. […] After 24 and 48 hours, the optical density was measured for each sample at wavelengths of 450 and 595 nanometers. […] The number of colonies on each plate was counted using ProtoCol® software from Synbiosis of Frederick, Md. […]

Gardnerella vaginalis [3] = assay: Zone of inhibition on agar plates, Gardnerella vaginalis (Examples 8, 11)
Experimental: (§1) A microorganism culture of 10^5 cfu (colony forming units)/ml in a 1× phosphate buffered saline (PBS) solution (diluted from 10×PBS LIQUID CONCENTRATE from VWR Cat. No. EM-6507] was used. One milliliter of the solution was plated on proper agar plates, depending on which microorganism was being tested. The agar plates were incubated at 35° C. for 4 hours. Three 4-millimeter diameter wells were then punched in each agar plate. A test sample of 100 microliters of 5% xylitol in sterilized 2-N-morpholino ethane sulfonic buffer (0.1 M 2-[morpholino]-ethanesulfonic acid, 0.9% NaCl, pH 4.7, prepared from BupH™ MES Buffer Saline Pack from Cat. No. 28390, Pierce Biotechnology, Inc., Rockford, Ill.) was added to one well of each plate. Into each of the other two wells were added MES buffer and 1% benzyl quats (diluted from BARDAC.® 205M, from Lonza Inc., Fair Lawn, N.J.) as negative and positive controls, respectively. The plates were incubated overnight at 35° C.
(§2) The following day, the “zone of inhibition” for each sample was then measured for Gardnerella vaginalis and Lactobacillus acidophilus activity. The “zone of inhibition” is a circular zone formed around the agar plate in which the growth of the microorganism is inhibited. […] However, when growth is inhibited, a clear zone is observed. The diameter of this clear zone may thus be used as an indicator of antimicrobial effectiveness.
(§3) Sorbitol, glucose, and xylitol were tested as described in Example 8.

[4] = tested on: Lactobacillus acidophilus; assay: Zone of inhibition on agar plates, Lactobacillus acidophilus (Examples 8, 11)
Experimental: as §1, §2, §3

Gardnerella vaginalis [5] = assay: Optical density growth test, Gardnerella vaginalis (Example 9); conditions: 2, 4, 6 and 24 hours, FIG. 5
Experimental: (§4) Test compounds were dissolved in culture media to form a suspension. Control or xylitol solutions (0.9 milliliters) were filtered and added into culture tubes, and to this was added 0.1 milliliter of either the Gardnerella vaginalis or Lactobacillus acidophilus suspension at a concentration of around 10^6 cfu/milliliter. The culture tubes were then incubated overnight at 37° C., whereafter the optical density was measured at 2, 4, 6 and 24 hours by pipetting 100 microliters of the control or sample solutions into 96-well microplates, and then using a ThermoMax Microplate Reader (Molecular Devices of Sunnyvale, Calif.) to obtain the optical density readings at 590 or 600 nm wavelengths. […] The inhibition effect remained evident throughout the 24-hour experimental period.

[6] = tested on: Lactobacillus acidophilus; assay: Optical density growth test, Lactobacillus acidophilus (Example 9); conditions: 2, 4, 6 and 24 hours, FIG. 7
Experimental: as §4

Gardnerella vaginalis [7] = assay: Plate count after 6 hours treatment, Gardnerella vaginalis (Example 10); conditions: all five concentrations, 1-5%
Experimental: (§5) Test compounds were dissolved in culture media to form a suspension. Control or xylitol solutions (0.9 milliliters) were filtered and added into culture tubes. To these solutions, 0.1 milliliter of the Gardnerella vaginalis or Lactobacillus acidophilus suspension was then added at a concentration of around 10^6 cfu/milliliter. The culture tubes were incubated at 37° C. for 6 hours. The samples in the culture tubes were then diluted at 1, 10 and 100 times, and 100 microliters of each dilution was plated onto agar plates with WASP (Whitely Automatic Spiral Plate) spiral plating equipment from Don Whitely Scientific Limited, USA. The plates were incubated overnight at 35° C., and the numbers of colonies were counted on each plate by either ProtoCol® from Synbiosis, Frederick, Md., USA Whitely Scientific Limited, USA or by hand count. The results are shown below in Tables 7-8 and in FIG. 6.

[8] = tested on: Lactobacillus acidophilus; assay: Plate count after 6 hours treatment, Lactobacillus acidophilus (Example 10); conditions: 1% and 5% xylitol
Experimental: as §5

Trichomonas vaginalis = assay: Viable Trichomonas vaginalis cell count with xylitol (Example 12)
Experimental: Trichomonas vaginalis was obtained from the American Type Culture Collection (ATCC #30001). The culture medium was LYI-S-2 medium (ATCC medium 2154).
A sterile LYI-S-2 medium was prepared according to the manufacturer's instructions, and the pH of this medium was adjusted to pH 6.0 using 1 N HCl. Xylitol was then dissolved into the LYI-S-2 medium at concentrations of 0.5%, 3.0%, and 5.0% (wt/vol). 0.9 milliliters of xylitol and culture medium (as control) were also added into different culture tubes. Thereafter, 0.1 milliliter of Trichomonas vaginalis culture suspension (concentration of 1×10^6/milliliter) was added to each of the culture tubes, and then incubated at 35° C. on a 15 degree horizontal slant. The viable Trichomonas vaginalis cells in each tube were counted under a microscope after 24 and 48 hours. The above procedure was repeated four times for each concentration of xylitol and the control.

Candida albicans = Candida albicans viable cell count with xylitol (Example 14); conditions: 24 hours; 1%, 2%, 3%, 4%, and 5.0% (wt/vol), FIG. 11
Experimental: A YM culture medium was prepared according to the manufacturer's instructions, and the pH of this medium was adjusted to pH 6.0 using 1 N HCl. Xylitol was then dissolved into the YM medium at concentrations of 1%, 2%, 3%, 4%, and 5.0% (wt/vol). 0.9 milliliters of the culture medium were also added into a different culture tube as a control. Thereafter, 0.1 milliliter of Candida albicans culture suspension (concentration of 1×10^6/milliliter) was added to each of the culture tubes, and then incubated at 37° C. The viable Candida albicans cells in each tube were counted under a microscope after 24 hours. The above procedure was repeated four times for each concentration and the control.

[9] = 5% in MES buffer pH 4.7, 100 microliters per well
[10] = zone of inhibition testing, concentrations as in Tables 6 and 9

Compound | Gardnerella vaginalis cell count versus control (optical density 595 nanometers) (Gardnerella vaginalis [1]) | Average Plate Count (Gardnerella vaginalis [2]; 24-hr samples, 4.4 wt/vol % xylitol in growth medium) | Effect on Gardnerella vaginalis growth (Gardnerella vaginalis [2]; Example 6) | Zone of inhibition, Gardnerella vaginalis (Gardnerella vaginalis [3]; [9]) [mm] | Zone of inhibition, Gardnerella vaginalis (Gardnerella vaginalis [3]; 10%) [mm] | Effect on Gardnerella vaginalis (Gardnerella vaginalis [3]; [10]) | Zone of inhibition, Lactobacillus acidophilus [4, 9] [mm] | Zone of inhibition, Lactobacillus acidophilus ([4]; 10%) [mm] | Effect on Lactobacillus acidophilus [4, 10] | Inhibition of Gardnerella vaginalis growth (optical density) (Gardnerella vaginalis [5]) | Inhibition of Lactobacillus acidophilus growth (optical density) [6] | Inhibition of Gardnerella vaginalis growth compared to control (Gardnerella vaginalis [7]) | Inhibition of Lactobacillus acidophilus growth [8] | Trichomonas vaginalis cell count versus control (Trichomonas vaginalis; 24 hours, 0.5%, 3.0%, and 5.0% (wt/vol), FIG. 8) | Trichomonas vaginalis cell count versus control (Trichomonas vaginalis; 48 hours, FIG. 9) | Live Trichomonas vaginalis cells (Trichomonas vaginalis; 48 hours, 3% and 5% xylitol) | Candida albicans cell count versus control (Candida albicans)
O=C[C@H](O)[C@H](O)[C@H](O)CO [D-ribose] | significantly reduced | – | – | – | – | – | – | – | – | – | – | – | – | – | – | – | –
OC[C@@H](O)[C@H](O)[C@@H](O)CO [xylitol] | significantly reduced | 2.40 × 10^4 | significant inhibition | 4 | 4 | inhibited; also recorded: inhibitory effect | 0 | 0 | did not affect the growth | significant inhibition | did not exhibit any significant inhibition | significant inhibition | did not exhibit any significant inhibition | significantly reduced | even more significant inhibitory effect | No live Trichomonas vaginalis cells were observed | significantly reduced
